These are literature values, as cited in patent US20240238442A1, “LIPOSOMES DISPLAYING A GLYCAN LIGAND FOR CD33 AND THEIR USE IN THE TREATMENT OF ALZHEIMER'S DISEASE” (THE GOVERNORS OF THE UNIVERSITY OF ALBERTA, priority 2021, published 2024).

The target in this data set is CD33 (Homo sapiens, UniProt P20138). As to conditions: free ligand.
Sequence of CD33 (P20138 18-364): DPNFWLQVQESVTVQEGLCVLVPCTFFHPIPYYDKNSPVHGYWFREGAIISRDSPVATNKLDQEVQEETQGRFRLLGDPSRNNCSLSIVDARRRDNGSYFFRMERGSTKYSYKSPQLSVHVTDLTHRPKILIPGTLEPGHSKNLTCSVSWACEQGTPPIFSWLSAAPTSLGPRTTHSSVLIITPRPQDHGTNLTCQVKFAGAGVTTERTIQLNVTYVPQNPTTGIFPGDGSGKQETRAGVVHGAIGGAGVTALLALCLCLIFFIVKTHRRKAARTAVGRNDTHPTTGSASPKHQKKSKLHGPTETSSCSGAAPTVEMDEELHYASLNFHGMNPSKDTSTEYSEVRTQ

As for `Cc1cc(C(=O)NC[C@@H](O)CC2O[C@@](OCC3OC(O[C@@H]4C(CO)O[C@@H](OCCN)C(O)C4O)C(O)C(O)[C@H]3O)(C(=O)O)CC(O)[C@H]2C(O)NC(=O)Cn2cc(C3CCCCC3)nn2)cc(C)c1O` (stereo partly shown) [CD33L], the Kd – broadly, the concentration at which binding is half-saturated – is 87 µM.
